One may read the TGI as the concentration giving total growth inhibition.

We go through 7 molecules from PubChem BioAssay (NCI).

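Each compound was tested at five concentrations against cells in 96-well plates for 48 hours. The concentration for full growth arrest is given as TGI.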 *1 amine or outer side, *2 acyl side, *3 side chain or, on linkers, in order; H or OH if unused. Where a SMILES comes first, the peptide text is derived from it. The star is where a group is joined. γGlu = O=C(O)[CH](CCC(=O)[*:2])N[*:1]; NHOH = ON* Some results are limits rather than exact numbers.

Holding throughout (assay): DTP human tumour cell line panel, 48 h
The subject of test [1] is HCC-2998 colon.
For test [2], the system named is NCI/ADR-RES ovarian.
The test system of test [3] is SF-539 CNS.
For test [4], the system named is A498 renal.
The subject of test [5] is MOLT-4 leukemia.
Test [6] has as its system CAKI-1 renal.
Test [7] deals with CCRF-CEM leukemia.
Test [8] has as its system SN12C renal.
The subject of test [9] is PC-3 prostate.
For test [10], the system named is NCI-H460 lung.
Test [11] concerns U251 CNS.
Test [12] relates to OVCAR-5 ovarian.
Test [13] concerns A549 NSCLC.
For test [14], the system named is M14 melanoma.
Test [15] concerns UO-31 renal.
Test [16] relates to HS 578T breast.
The test system of test [17] is SK-MEL-28 melanoma.
The subject of test [18] is TK-10 renal.
Test [19] relates to HCT-116 colon.
The test system of test [20] is IGROV1 ovarian.

Regarding `CSc1nc(Br)nc2ncn(C3CC(Oc4ccc(C)cc4)C(COc4ccc(C)cc4)O3)c12` (stereo not given), the TGI in test [1], in test [2], in test [3], in test [4], in test [5] and in test [6] was above 100 µM in each case. Further, the TGI in test [7], in [8], in test [9], in [10], in test [11] and in [12] was above 100 µM in each case. For the same molecule, the TGI in test [13] was above 100 µM; in test [14], above 100 µM; in test [15], 75.7 µM; in [16] it was 63.5 µM; in [17] it was above 100 µM; in test [18], above 100 µM. Moreover, the total growth inhibition concentration (TGI) in test [19] and in [20] was above 100 µM each time.

As for `CCc1ccc(/C=C/C(=O)C2CN(CC)CCC2(O)/C=C/c2ccc(CC)cc2)cc1` (stereo not given), the TGI in test [1] is 3.99 µM; in [2], 12.4 µM; in [3] it was 6 µM; in [4], 23.1 µM; in test [5], 6.03 µM; in [6], 18.7 µM. In addition, the TGI in [7] came to 5.16 µM; in [8], 14.1 µM; in [9], 12.4 µM; in [10], 7.26 µM; in [11], 3.41 µM; in test [12], 9.69 µM. Also, the TGI in test [13] is 20 µM; in test [14], 7.11 µM; in test [15] it was 11.6 µM; in test [16], 8.67 µM; in [17], 3.04 µM; in test [18], 5.54 µM. The results for the TGI in test [19] and in test [20] were 3.25 µM and 4.35 µM, respectively.

In the case of `CCOC(=O)CNC(=O)C(CCC(=O)NO)NC(=O)CCC(N)C(=O)O` (stereo not given) (γGlu-Glu(NHOH)-Gly-OEt; configuration not given here), the TGI in test [1], in [2], in test [3], in test [4], in test [5] and in test [6] was above 100 µM each time. Besides, the TGI in test [7], in test [8], in test [9], in test [10], in [11] and in [12] was above 100 µM each time. Further, the TGI in test [13], in [14], in test [15], in test [16], in test [17] and in test [18] was above 100 µM in each case. Further, the TGI in test [19] and in test [20] was above 100 µM each time.

On to `CCCCCC(=Nc1n[nH]nc1C(N)=O)OCC`, for which the TGI in test [1], in test [2], in [3], in test [4], in test [5] and in [6] was above 100 µM throughout. The TGI in [7], in [8], in test [9], in [10], in test [11] and in test [12] was above 100 µM throughout. Moreover, the TGI in test [13], in test [14], in test [15], in [16], in test [17] and in test [18] was above 100 µM in each case. Also, the TGI in test [19] and in test [20] was above 100 µM each time.

Consider `COc1ccc2c(c1)/C(=C\c1c(Cl)n(-c3ccccc3)c3ccccc13)C(=O)N2`, for which the TGI in test [1] is 22.2 µM; in test [2], 7.98 µM; in test [3], 41.6 µM; in test [4], 32 µM; in test [5], above 100 µM; in test [6], 56.7 µM. Moreover, the TGI was 55.8 µM in test [7]; 35.5 µM in [8]; above 100 µM in test [9]; 68.2 µM in test [10]; 38.5 µM in test [11]; 50 µM in test [12]. Moreover, the TGI in test [13] is 51.4 µM; in [14] it was 15 µM; in test [15], 18.3 µM; in test [16] it was 5.28 µM; in [17], above 100 µM; in test [18], 84.4 µM. Also, the TGI in test [19] turned out to be 14.6 µM; in [20] it was 27.9 µM.

As for `Cc1cc2c(cc1C)C(=O)/C(=C/c1ccccc1C(=O)O)C2`, the TGI is above 100 µM in [1]; above 100 µM in test [2]; 39.6 µM in [3]; 88.6 µM in test [4]; above 100 µM in test [5]; above 100 µM in test [6]. The TGI in test [7] is above 100 µM; in test [8], above 100 µM; in test [9], above 100 µM; in test [10], above 100 µM; in [11] it was 68.8 µM; in test [12], 68.9 µM. In addition, the TGI in [13], in test [14], in test [15], in [16], in test [17] and in [18] was above 100 µM throughout. Further, the TGI in test [19] and in test [20] was above 100 µM throughout.

For `Nc1c(Br)cc(-c2nc3ccccc3s2)cc1Br`, the total growth inhibition concentration (TGI) in test [1], in test [2], in test [3], in test [4], in test [5] and in test [6] was above 100 µM throughout. The TGI in [7], in [8], in test [9], in test [10], in test [11] and in [12] was above 100 µM in each case. Besides, the TGI in test [13], in test [14], in test [15], in [16], in [17] and in test [18] was above 100 µM throughout. Also, the TGI in [19] and in test [20] was above 100 µM throughout.
